Laboratory results taken from patent US6255100A, “Cyclosporin fermentation process” (Novartis AG, priority 1990, dated 2001).
Non-standard residues stand in square brackets, D forms with d. Residues, ends and D or L forms follow the SMILES beside them. MeBmt = C/C=C/C[C@@H](C)[C@@H](O)[C@H](NC)C(=O)O; NMeL = CN[C@@H](CC(C)C)C(=O)O; NMeV = CN[C@H](C(=O)O)C(C)C; dNMeA = CN[C@H](C)C(=O)O

What follows are compounds tested on MT4 cells (assay: Cytotoxicity in MT4-cells (MTT)). Details: not given.
Method: To evaluate the anti-HIV potential in additional cell lines and particularly in a monocytic cell line (U937), cellular toxicity of the test compound to these cell lines is first assessed. Jurkat and U937 cell suspensions are adjusted to 1×10^5 cells/ml and incubated in the presence of various concentrations of test compound. After 48 hours the amounts of cells per ml are compared by staining with MTT. Cytoxicity in MT4 cells may be measured in the same way.
The significance of these numbers and the appropriate methods are discussed supra.

SMILES	Cytotoxicity
CCCC[C@@H](C)[C@@H](O)[C@H]1C(=O)N[C@@H](CC)C(=O)N(C)CC(=O)N(C)[C@@H](CC(C)(C)O)C(=O)N[C@@H](C(C)C)C(=O)N(C)[C@@H](CC(C)C)C(=O)N[C@@H](C)C(=O)N[C@H](C)C(=O)N(C)[C@@H](CC(C)C)C(=O)N(C)[C@@H](CC(C)C)C(=O)N(C)[C@@H](C(C)C)C(=O)N1C [Compound a), [dihydro-MeBmt]^1-[γ-hydroxy-MeLeu]^4 -Ciclosporin]	16.3 µg/mL
C/C=C/C[C@@H](C)[C@@H](O)[C@H]1C(=O)N[C@@H](CC)C(=O)N(C)CC(=O)N(C)[C@@H](CC(C)(C)O)C(=O)N[C@@H](C(C)C)C(=O)N(C)[C@@H](CC(C)C)C(=O)N[C@@H](C)C(=O)N[C@H](C)C(=O)N(C)[C@@H](CC(C)C)C(=O)N(C)[C@@H](CC(C)C)C(=O)N(C)[C@@H](C(C)C)C(=O)N1C [Compound e), [γ-hydroxy-MeLeu]^4 -Ciclosporin]	15.5 µg/mL
C/C=C/C[C@@H](C)[C@@H](O)[C@H]1C(=O)N[C@@H](CCC)C(=O)N(C)CC(=O)N(C)[C@@H](CC(C)(C)O)C(=O)N[C@@H](C(C)C)C(=O)N(C)[C@@H](CC(C)C)C(=O)N[C@@H](C)C(=O)N[C@H](C)C(=O)N(C)[C@@H](CC(C)C)C(=O)N(C)[C@@H](CC(C)C)C(=O)N(C)[C@@H](C(C)C)C(=O)N1C [Compound f), [Nva]^2-[γ-hydroxy-MeLeu]^4 -Ciclosporin]	14.0 µg/mL
C/C=C/C[C@@H](C)[C@@H](O)[C@H]1C(=O)N[C@@H](CC)C(=O)N(C)CC(=O)N(C)[C@@H](CC(C)C)C(=O)N(C)[C@@H](C(C)C)C(=O)N(C)[C@@H](CC(C)C)C(=O)N[C@@H](C)C(=O)N[C@H](C)C(=O)N(C)[C@@H](CC(C)C)C(=O)N(C)[C@@H](CC(C)C)C(=O)N(C)[C@@H](C(C)C)C(=O)N1C [Compound h), [MeVal]^5 -Ciclosporin]	4.4 µg/mL
C/C=C/C[C@@H](C)[C@@H](O)[C@H]1C(=O)N[C@@H]([C@@H](C)OC)C(=O)N(C)[C@H](C)C(=O)N(C)[C@@H](CC(C)C)C(=O)N(C)[C@@H](C(C)C)C(=O)N(C)[C@@H](CC(C)C)C(=O)N[C@@H](C)C(=O)N[C@H](C)C(=O)N(C)[C@@H](CC(C)C)C(=O)N(C)[C@@H](CC(C)C)C(=O)N(C)[C@@H](C(C)C)C(=O)N1C [Compound i), [MeOThr]^2-[(D)MeAla]^3-[MeVal]^5 -Ciclosporin] (cyclo(A[dA][NMeL][NMeL][NMeV][MeBmt]T(Me)[dNMeA][NMeL][NMeV][NMeL]))	> 10 µg/mL
CC[C@@H]1NC(=O)[C@H]([C@H](O)[C@H](C)C/C=C/CO)N(C)C(=O)[C@H](C(C)C)N(C)C(=O)[C@H](CC(C)C)N(C)C(=O)[C@H](CC(C)C)N(C)C(=O)[C@@H](C)NC(=O)[C@H](C)NC(=O)[C@H](CC(C)C)N(C)C(=O)[C@H](C(C)C)NC(=O)[C@H](CC(C)C)N(C)C(=O)CN(C)C1=O [Compound j), [8'-hydroxy-MeBmt]^1 -Ciclosporin]	10.6 µg/mL
C/C=C/C[C@@H](C)[C@@H](O)[C@H]1C(=O)N[C@@H](CC)C(=O)N(C)CC(=O)N(C)[C@@H](CC(C)C)C(=O)N[C@@H](C(C)C)C(=O)N(C)[C@@H](C)C(=O)N[C@@H](C)C(=O)N[C@H](C)C(=O)N(C)[C@@H](CC(C)C)C(=O)N(C)[C@@H](CC(C)C)C(=O)N(C)[C@@H](C(C)C)C(=O)N1C [Compound k), [MeAla]^6 -Ciclosporin]	5.2 µg/mL
C/C=C/C[C@@H](C)[C@@H](O)[C@H]1C(=O)N[C@@H](CC)C(=O)N(C)CC(=O)N(C)[C@@H](CC(C)C)C(=O)N[C@@H](C(C)C)C(=O)N(C)[C@@H](CC(C)C)C(=O)N[C@@H](C)C(=O)N[C@H](C)C(=O)N(C)[C@@H](CC(C)(C)O)C(=O)N(C)[C@@H](CC(C)C)C(=O)N(C)[C@@H](C(C)C)C(=O)N1C [l), [γ-hydroxy-MeLeu]^9 -Ciclosporin]	> 10 µg/mL

Same assay, conditions: MT4-cells, MTT staining

SMILES	Cytotoxicity
C/C=C/C[C@@H](C)[C@@H](O)[C@H]1C(=O)N[C@@H](CC)C(=O)N(C)CC(=O)N(C)[C@@H](C(C)C)C(=O)N[C@@H](C(C)C)C(=O)N(C)[C@@H](CC(C)C)C(=O)N[C@@H](C)C(=O)N[C@H](C)C(=O)N(C)[C@@H](CC(C)C)C(=O)N(C)[C@@H](CC(C)C)C(=O)N(C)[C@@H](C(C)C)C(=O)N1C [Compound b), [MeVal]^4 -Ciclosporin]	5.4 µg/mL
C/C=C/C[C@@H](C)[C@@H](O)[C@H]1C(=O)N[C@@H](CC)C(=O)N(C)CC(=O)N(C)[C@@H]([C@@H](C)CC)C(=O)N[C@@H](C(C)C)C(=O)N(C)[C@@H](CC(C)C)C(=O)N[C@@H](C)C(=O)N[C@H](C)C(=O)N(C)[C@@H](CC(C)C)C(=O)N(C)[C@@H](CC(C)C)C(=O)N(C)[C@@H](C(C)C)C(=O)N1C [Compound c), [MeIle]^4 -Ciclosporin]	4.5 µg/mL
